Earlier results in patent US11091735B2, “Polyvalent culture medium for anaerobic bacteria under aerobic conditions” (FONDATION MEDITERRANEE INFECTION, priority 2017, dated 2021).

Conditions: stock solution therefore prepared in ethanol

Row | solubility in water | Compound
1 | not soluble in water | Cc1cc(C(C)(C)C)c(O)c(C(C)(C)C)c1 [BHT, Butylhydroxytoluene]
2 | not soluble in water | vitamin E
